# From US9085555B2, “Complement pathway modulators and uses thereof” (priority 2011, dated 2015)
# Target: Factor D (Homo sapiens (Human), UniProt P00746)
# Assay: biochemical
# Format: biochemical
# Settings: read-out: IC50
# Factor D, sequence (P00746 26-253): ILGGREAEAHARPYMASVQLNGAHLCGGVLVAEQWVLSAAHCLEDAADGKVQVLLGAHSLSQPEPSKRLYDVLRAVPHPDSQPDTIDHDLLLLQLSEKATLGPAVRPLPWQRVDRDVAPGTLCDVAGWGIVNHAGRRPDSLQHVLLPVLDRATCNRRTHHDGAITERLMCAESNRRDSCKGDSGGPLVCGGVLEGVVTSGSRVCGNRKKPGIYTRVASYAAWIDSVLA
row,SMILES,IC50
1,"C[C@@]12C[C@@H](C(=O)NCc3cccc(Cl)c3F)N(C(=O)Cn3nc(C(N)=O)c4ccncc43)[C@@H]1C2 [Example 675, 1-{2-[(1R,3S,5R)-3-(3-Chloro-2-fluoro-benzylcarbamoyl)-5-methyl-2-aza-bicyclo [3.1.0]hex-2-yl]-2-oxo-ethyl}-1H-pyrazolo[3,4-c]pyridine-3-carboxylic acid amide]",23 nM
2,"CC(=O)c1nn(CC(=O)N2[C@@H]3C[C@@H]3C[C@H]2C(=O)N[C@H](CO)c2cccc(Cl)c2F)c2ncccc12 [Example 677, (1R,3S,5R)-2-[2-(3-Acetyl-pyrazolo[3,4-b]pyridin-1-yl)-acetyl]-2-aza-bicyclo [3.1.0]hexane-3-carboxylic acid [(S)-1-(3-chloro-2-fluoro-phenyl)-2-hydroxy-ethyl]-amide]",10 nM
3,"COC[C@@H](NC(=O)[C@@H]1C[C@H]2C[C@H]2N1C(=O)Cc1nc(C(C)=O)c2ccccn12)c1cccc(Cl)c1F [Example 678, (1R,3S,5R)-2-[2-(1-Acetyl-imidazo[1,5-a]pyridin-3-yl)-acetyl]-2-aza-bicyclo [3.1.0]hexane-3-carboxylic acid [(S)-1-(3-chloro-2-fluoro-phenyl)-2-methoxy-ethyl]-amide]",40 nM
4,"CC(=O)c1nc(CC(=O)N2[C@@H]3C[C@@H]3C[C@H]2C(=O)N[C@H](CC#N)c2cccc(Cl)c2F)n2ccccc12 [Example 679, (1R,3S,5R)-2-[2-(1-Acetyl-imidazo[1,5-a]pyridin-3-yl)-acetyl]-2-aza-bicyclo[3.1.0]hexane-3-carboxylic acid [(R)-1-(3-chloro-2-fluoro-phenyl)-2-cyano-ethyl]-amide]",134 nM
5,"CO[C@H]1[C@@H](C(=O)NCc2cccc(Cl)c2F)N(C(=O)Cn2nc(C(C)=O)c3ccccc32)C[C@@H]1F [Example 680, (2S,3S,4S)-1-[2-(3-Acetyl-indazol-1-yl)-acetyl]-4-fluoro-3-methoxy-pyrrolidine-2-carboxylic acid 3-chloro-2-fluoro-benzylamide]",16 nM
6,"CO[C@H]1[C@@H](C(=O)NCc2cccc(Cl)c2F)N(C(=O)Cn2cc(C(C)=O)c3ccncc32)C[C@@H]1F [Example 681, (2S,3S,4S)-1-[2-(3-Acetyl-pyrrolo[2,3-c]pyridin-1-yl)-acetyl]-4-fluoro-3-methoxy-pyrrolidine-2-carboxylic acid 3-chloro-2-fluoro-benzylamide]",19 nM
7,"CO[C@H]1[C@@H](C(=O)NCc2cccc(Cl)c2F)N(C(=O)Cn2nc(C(C)=O)c3ccncc32)C[C@@H]1F [Example 682, (2S,3S,4S)-1-[2-(3-Acetyl-pyrazolo[3,4-c]pyridin-1-yl)-acetyl]-4-fluoro-3-methoxy-pyrrolidine-2-carboxylic acid 3-chloro-2-fluoro-benzylamide]",12 nM
8,"NC(=O)c1nn(CC(=O)N2[C@@H]3C[C@@H]3C[C@H]2C(=O)Nc2cccc(-c3ccccc3F)c2F)c2cnccc12 [Example 684, 1-{2-[(1R,3S,5R)-3-(2,2′-Difluoro-biphenyl-3-ylcarbamoyl)-2-aza-bicyclo[3.1.0]hex-2-yl]-2-oxo-ethyl}-1H-pyrazolo[3,4-c] pyridine-3-carboxylic acid amide]",27 nM
9,"NC(=O)c1nn(CC(=O)N2[C@@H]3C[C@@H]3C[C@H]2C(=O)Nc2cccc(-c3ccccc3Cl)c2F)c2cnccc12 [Example 685, 1-{2-[(1R,3S,5R)-3-(2′-Chloro-2-fluoro-biphenyl-3-ylcarbamoyl)-2-aza-bicyclo[3.1.0]hex-2-yl]-2-oxo-ethyl}-1H-pyrazolo[3,4-c] pyridine-3-carboxylic acid amide]",5 nM
10,"NC(=O)c1nn(CC(=O)N2[C@@H]3C[C@@H]3C[C@H]2C(=O)Nc2cccc(-c3ncccc3F)c2F)c2ccccc12 [Example 686, 1-(2-{(1R,3S,5R)-3-[2-Fluoro-3-(3-fluoro-pyridin-2-yl)-phenylcarbamoyl]-2-aza-bicyclo[3.1.0]hex-2-yl}-2-oxo-ethyl)-1H-indazole-3-carboxylic acid amide]",30 nM
11,"Cc1cccnc1-c1cccc(NC(=O)[C@@H]2C[C@H]3C[C@H]3N2C(=O)Cn2nc(C(N)=O)c3ccncc32)c1F [Example 687, 1-(2-{(1R,3S,5R)-3-[2-Fluoro-3-(3-methyl-pyridin-2-yl)-phenylcarbamoyl]-2-aza-bicyclo[3.1.0]hex-2-yl}-2-oxo-ethyl)-1H-pyrazolo[3,4-c] pyridine-3-carboxylic acid amide]",98 nM
12,"NC(=O)c1nn(CC(=O)N2[C@@H]3C[C@@H]3C[C@H]2C(=O)Nc2cccc(-c3ncccc3Cl)c2F)c2cnccc12 [Example 688, 1-(2-{(1R,3S,5R)-3-[3-(3-Chloro-pyridin-2-yl)-2-fluoro-phenylcarbamoyl]-2-aza-bicyclo[3.1.0]hex-2-yl}-2-oxo-ethyl)-1H-pyrazolo[3,4-c] pyridine-3-carboxylic acid amide]",10 nM
13,"COC(=O)c1ccc2c(C(C)=O)cn(CC(=O)N3[C@@H]4C[C@@H]4C[C@H]3C(=O)NCc3cccc(Cl)c3F)c2n1 [Example 689, 3-Acetyl-1-{2-[(1R,3S,5R)-3-(3-chloro-2-fluoro-benzylcarbamoyl)-2-aza-bicyclo[3.1.0]hex-2-yl]-2-oxo-ethyl}-1H-pyrrolo[2,3-b] pyridine-6-carboxylic acid methyl ester]",156 nM
14,"C[C@@H](NC(=O)[C@@H]1C[C@@H](F)CN1C(=O)Cn1nc(C(N)=O)c2ccncc21)c1cccc(Cl)c1F [Example 690, 1-(2-{(2S,4R)-2-[(R)-1-(3-Chloro-2-fluoro-phenyl)-ethylcarbamoyl]-4-fluoro-pyrrolidin-1-yl}-2-oxo-ethyl)-1H-pyrazolo[3,4-c]pyridine-3-carboxylic acid amide]",34 nM
15,"Cc1cc2c(C(N)=O)nn(CC(=O)N3C[C@H](F)C[C@H]3C(=O)N[C@H](C)c3cccc(Cl)c3F)c2cn1 [Example 691, 1-(2-{(2S,4R)-2-[(R)-1-(3-Chloro-2-fluoro-phenyl)-ethylcarbamoyl]-4-fluoro-pyrrolidin-1-yl}-2-oxo-ethyl)-5-methyl-1H-pyrazolo[3,4-c] pyridine-3-carboxylic acid amide]",68 nM
16,"NC(=O)c1nn(CC(=O)N2[C@@H]3C[C@@H]3C[C@H]2C(=O)NCc2cccc(Cl)c2F)c2ccccc12 [Example 692, 1-{2-[(1R,3S,5R)-3-(3-Chloro-2-fluoro-benzylcarbamoyl)-2-aza-bicyclo[3.1.0]hex-2-yl]-2-oxo-ethyl}-1H-indazole-3-carboxylic acid amide]",3 nM
17,"Cc1nccc2c(C(N)=O)nn(CC(=O)N3[C@@H]4C[C@@H]4C[C@H]3C(=O)N[C@H](C)c3cccc(Cl)c3F)c12 [Example 693, 1-(2-{(1R,3S,5R)-3-[(R)-1-(3-Chloro-2-fluoro-phenyl)-ethylcarbamoyl]-2-aza-bicyclo[3.1.0]hex-2-yl}-2-oxo-ethyl)-7-methyl-1H-pyrazolo[3,4-c]pyridine-3-carboxylic acid amide]",6 nM
18,"Cc1nccc2c(C(N)=O)nn(CC(=O)N3[C@@H]4C[C@@H]4C[C@H]3C(=O)NCc3cccc(Cl)c3F)c12 [Example 694, 1-{2-[(1R,3S,5R)-3-(3-Chloro-2-fluoro-benzylcarbamoyl)-2-aza-bicyclo[3.1.0]hex-2-yl]-2-oxo-ethyl}-7-methyl-1H-pyrazolo[3,4-c]pyridine-3-carboxylic acid amide]",17 nM
19,"Cc1cc2c(C(N)=O)nn(CC(=O)N3[C@@H]4C[C@@H]4C[C@H]3C(=O)NCc3cccc(Cl)c3F)c2c(C)n1 [Example 695, 1-{2-[(1R,3S,5R)-3-(3-Chloro-2-fluoro-benzylcarbamoyl)-2-aza-bicyclo[3.1.0]hex-2-yl]-2-oxo-ethyl}-5,7-dimethyl-1H-pyrazolo[3,4-c]pyridine-3-carboxylic acid amide]",15 nM
20,"Cc1cc2c(C(N)=O)nn(CC(=O)N3[C@@H]4C[C@@H]4C[C@H]3C(=O)N[C@H](C)c3cccc(Cl)c3F)c2c(C)n1 [Example 696, 1-(2-{(1R,3S,5R)-3-[(R)-1-(3-Chloro-2-fluoro-phenyl)-ethylcarbamoyl]-2-aza-bicyclo[3.1.0]hex-2-yl}-2-oxo-ethyl)-5,7-dimethyl-1H-pyrazolo[3,4-c]pyridine-3-carboxylic acid amide]",101 nM
21,"CCc1cc2c(C(N)=O)nn(CC(=O)N3C[C@H](F)[C@@H](OC)[C@H]3C(=O)NCc3cccc(Cl)c3F)c2cn1 [Example 697, 1-{2-[(2S,3S,4S)-2-(3-Chloro-2-fluoro-benzylcarbamoyl)-4-fluoro-3-methoxy-pyrrolidin-1-yl]-2-oxo-ethyl}-5-ethyl-1H-pyrazolo[3,4-c]pyridine-3-carboxylic acid amide]",3 nM
22,"C[C@@H](NC(=O)[C@@H]1C[C@H]2C[C@H]2N1C(=O)Cn1nc(C(N)=O)c2cc(C(F)(F)F)ncc21)c1cccc(Cl)c1F [Example 699, 1-(2-{(1R,3S,5R)-3-[(R)-1-(3-Chloro-2-fluoro-phenyl)-ethylcarbamoyl]-2-aza-bicyclo[3.1.0]hex-2-yl}-2-oxo-ethyl)-5-trifluoromethyl-1H-pyrazolo[3,4-c]pyridine-3-carboxylic acid amide]",118 nM
23,"NC(=O)c1nn(CC(=O)N2[C@@H]3C[C@@H]3C[C@H]2C(=O)NCc2cccc(Cl)c2F)c2cnc(C3CC3)cc12 [Example 700, 1-{2-[(1R,3S,5R)-3-(3-Chloro-2-fluoro-benzylcarbamoyl)-2-aza-bicyclo[3.1.0]hex-2-yl]-2-oxo-ethyl}-5-cyclopropyl-1H-pyrazolo[3,4-c]pyridine-3-carboxylic acid amide]",6 nM
24,"C[C@@H](NC(=O)[C@@H]1C[C@H]2C[C@H]2N1C(=O)Cn1nc(C(N)=O)c2cc(C3CC3)ncc21)c1cccc(Cl)c1F [Example 701, 1-(2-{(1R,3S,5R)-3-[(R)-1-(3-Chloro-2-fluoro-phenyl)-ethylcarbamoyl]-2-aza-bicyclo[3.1.0]hex-2-yl}-2-oxo-ethyl)-5-cyclopropyl-1H-pyrazolo[3,4-c]pyridine-3-carboxylic acid amide]",15 nM
25,"NC(=O)c1nn(CC(=O)N2[C@@H]3C[C@@H]3C[C@H]2C(=O)NCc2cccc(Cl)c2F)c2cnccc12 [Example 703, 1-(2-((1R,3S,5R)-3-((3-Chloro-2-fluorobenzyl)carbamoyl)-2-azabicyclo[3.1.0]hexan-2-yl)-2-oxoethyl)-1H-pyrazolo[3,4-c]pyridine-3-carboxamide]",10 nM
